The values below are quoted from earlier work in patent US5168102A, “Endocrine manipulation to improve body composition of poultry” (priority 1990, dated 1992).

The conditions of the series: injected; commercial preparations from cattle and swine pancreases; cited from earlier work.

As to glucagon, the “biological and metabolic activity in chickens” value was “the same biological and metabolic activity as endogenous glucagon”.
